# Experimental data reported in patent US20260256792A1, “TREATMENT OF CHRONIC SPONTANEOUS URTICARIA BY ADMINISTERING (R)-2-[3-[4-AMINO-3-(2-FLUORO-4-PHENOXY-PHENYL)PYRAZOLO[3,4-D]PYRIMIDIN-1-YL]PIPERIDINE-1-CARBONYL]-4-METHYL-4-[4-(OXETAN-3-YL)PIPERAZIN-1-YL]PENT-2-ENENITRILE” (priority 2023, published 2026).
# System: moderate-to-severe chronic spontaneous urticaria (CSU)
# Test: Phase 2 CSU study: urticaria activity score over 7 days (UAS7)
# Type: in vivo, human
# Design: key to UAS7 Median / UAS7 Change from baseline Median / UAS7 change from baseline, Q1 / UAS7 change from baseline, Q3 / UAS7 change from baseline, Max / UAS7 Change from baseline LS Mean (SE): UAS7 points; daily UAS score ranges 0–6 points/day, over 7 days
# Settings: for UAS7 change from baseline at Week 12, LS Mean (SE): ANCOVA; for UAS7 Change from baseline Mean (SD) / UAS7 Change from baseline Median / UAS7 Percent change from baseline Mean (SD) / UAS7 Percent change from baseline Median / UAS7 change from baseline, Max / UAS7 change from baseline, Min / UAS7 change from baseline, Q1 / UAS7 change from baseline, Q3 / UAS7 percent change from baseline, Max / UAS7 percent change from baseline, Min / UAS7 percent change from baseline, Q1 / UAS7 percent change from baseline, Q3: double-blind period, last week block of Table 17 (week heading not shown)
# From the text: The study comprises a 12 week, randomized, double-blind, placebo-controlled, multi-center, dose-ranging efficacy and safety phase, followed by a 40 week open label extension (OLE) phase (see FIG. 1). The study consists of three phases and an optional OLE phase. […] Clinically, CSU is characterized by the spontaneous and recurrent appearance of pruritic hives. The proposed primary endpoints were the UAS7 at Week 12 in EU and EU reference countries and the ISS7 in the US. Regardless of where a participant was from, all assessments were the same. The UAS7 score is a composite score containing both the HSS7 and the ISS7. This allowed a global assessment of the two key components of urticaria: hives and itch. […] The UAS is a validated PRO measure. […] The daily UAS scores range from 0 to 6 point/day. […] Patients were to complete the UAS using the e-diary. […] The following secondary endpoints were to be analyzed using the same approach as for the primary endpoint: • Change from baseline in UAS7 at Week 4 • Change from baseline in UAS7 at Week 12 (for US and US reference countries) • Change from baseline in ISS7 at Week 12 (except US and US reference countries) • Change from baseline in HSS7 at Week 12 The following responder secondary endpoints were to be analyzed using the Cochran-Mantel-Haenszel test adjusted by region: • Proportion of participants with UAS7<6 at Week 12 • Proportion of participants with UAS7=0 at Week 12 Participants who received selected prohibited medications and/or rescue medications were to be considered as non-responders for time points after the medication usage. For other participants, all available data including those collected during the off-treatment period were to be used to determine the responder/non-responder status. Missing data were to be considered as non-responders.
# [1] = 400 mg BID, Omalizumab-Naïve Population (N = 35), n observed/imputed 5 (3/2)
# [2] = 400 mg BID, Week 12, omalizumab-naïve
# [3] = 400 mg BID, omalizumab-naïve population
# [4] = 400 mg BID, omalizumab-naïve population with outlier removed
# [5] = 400 mg QPM, Omalizumab-Naïve Population (N = 37), n observed/imputed 7 (3/4)
# [6] = 400 mg QPM, omalizumab-naïve population
# [7] = 400 mg QPM, omalizumab-naïve population with outlier removed
smiles,measurement,setting,value
"CC(C)(C=C(C#N)C(=O)N1CCC[C@@H](n2nc(-c3ccc(Oc4ccccc4)cc3F)c3c(N)ncnc32)C1)N1CCN(C2COC2)CC1 [rilzabrutinib, (R)-2-[3-[4-amino-3-(2-fluoro-4-phenoxy-phenyl)pyrazolo[3,4-d]pyrimidin-1-yl]piperidine-1-carbonyl]-4-methyl-4-[4-(oxetan-3-yl)piperazin-1-yl]pent-2-enenitrile]",improvement compared to placebo across all endpoints,400 mg BID,positive improvements across all endpoints
same,"UAS7 at Week 12, Mean (SD)","400 mg BID, ITT population",14.70 (14.29)
same,"UAS7 at Week 12, Median","400 mg BID, ITT population",12.00
same,"UAS7 change from baseline at Week 12, LS Mean Diff vs. placebo (95% CI)","400 mg BID, ITT population","−3.62 (−8.87, 1.63)"
same,"UAS7 change from baseline at Week 12, Mean (SD)","400 mg BID, ITT population",−16.02 (13.29) ^
same,"UAS7 change from baseline at Week 12, Median","400 mg BID, ITT population",−13.50
same,"UAS7 change from baseline at Week 12, LS Mean (SE)","400 mg BID, ITT population",−14.82 (1.98)
same,LS mean change in UAS7 from baseline to Week 12 (see Table 18),"400 mg BID, ITT population, sentence on reductions following one week of treatment",−10.01
same,UAS7 Change from baseline Mean (SD),[1],−14.40 (13.79)
same,UAS7 Change from baseline Median,[1],−13.00
same,UAS7 Percent change from baseline Mean (SD),[1],−51.30 (48.04) %
same,UAS7 Percent change from baseline Median,[1],−48.15%
same,"UAS7 change from baseline, Max",[1],0.0
same,"UAS7 change from baseline, Min",[1],−29.0
same,"UAS7 change from baseline, Q1",[1],−28.00
same,"UAS7 change from baseline, Q3",[1],−2.00
same,"UAS7 percent change from baseline, Max",[1],0.0%
same,"UAS7 percent change from baseline, Min",[1],−100.0%
same,"UAS7 percent change from baseline, Q1",[1],−100.00%
same,"UAS7 percent change from baseline, Q3",[1],−8.33%
same,participants with UAS7 of 0,[2],14.3%
same,participants with UAS7 of ≤6,[2],20.0%
same,LS mean reduction in UAS7 from baseline to Week 12 (see Table 19),[3],−9.79
same,"UAS7 at Week 12, Mean (SD)",[3],15.61 (13.91)
same,"UAS7 at Week 12, Median",[3],14.00
same,"UAS7 change from baseline at Week 12, LS Mean Diff vs. placebo (95% CI)",[3],"−4.09 (−9.59, 1.40)"
same,"UAS7 change from baseline at Week 12, Mean (SD)",[3],−14.49 (12.08) ^
same,"UAS7 change from baseline at Week 12, Median",[3],−12.80
same,"UAS7 at Week 12, Mean (SD)",[4],15.61 (13.91)
same,"UAS7 at Week 12, Median",[4],14.00
same,"UAS7 change from baseline at Week 12, LS Mean Diff vs. placebo (95% CI)",[4],"−4.29 (−9.74, 1.16)"
same,"UAS7 change from baseline at Week 12, Mean (SD)",[4],−14.49 (12.08) ^
same,"UAS7 change from baseline at Week 12, Median",[4],−12.80
same,"UAS7 change from baseline at Week 12, LS Mean (SE)",[4],−14.30 (2.06)
same,"UAS7 change from baseline at Week 12, LS Mean (SE)",[3],−14.24 (2.06)
same,difference to placebo across endpoints,400 mg QPM,no difference
same,"UAS7 at Week 12, Mean (SD)","400 mg QPM, ITT population",21.80 (10.94)
same,"UAS7 at Week 12, Median","400 mg QPM, ITT population",22.40
same,"UAS7 change from baseline at Week 12, LS Mean Diff vs. placebo (95% CI)","400 mg QPM, ITT population","0.97 (−4.40, 6.34)"
same,"UAS7 change from baseline at Week 12, Mean (SD)","400 mg QPM, ITT population",−11.04 (9.56)
same,"UAS7 change from baseline at Week 12, Median","400 mg QPM, ITT population",−9.40
same,"UAS7 change from baseline at Week 12, LS Mean (SE)","400 mg QPM, ITT population",−10.22 (2.01)
same,UAS7 Change from baseline Mean (SD),[5],−21.44 (16.26)
same,UAS7 Change from baseline Median,[5],−28.00
same,UAS7 Percent change from baseline Mean (SD),[5],−66.12 (46.34) %
same,UAS7 Percent change from baseline Median,[5],−86.67%
same,"UAS7 change from baseline, Max",[5],0.3
same,"UAS7 change from baseline, Min",[5],−38.0
same,"UAS7 change from baseline, Q1",[5],−36.40
same,"UAS7 change from baseline, Q3",[5],0.00
same,"UAS7 percent change from baseline, Max",[5],1.1%
same,"UAS7 percent change from baseline, Min",[5],−100.0%
same,"UAS7 percent change from baseline, Q1",[5],−100.00%
same,"UAS7 percent change from baseline, Q3",[5],0.00%
same,"UAS7 at Week 12, Median",[6],22.87
same,"UAS7 change from baseline at Week 12, LS Mean Diff vs. placebo (95% CI)",[6],"0.40 (−5.08, 5.89)"
same,"UAS7 change from baseline at Week 12, Mean (SD)",[6],−10.57 (9.36)
same,"UAS7 change from baseline at Week 12, Median",[6],−8.70
same,"UAS7 at Week 12, Median",[7],22.87
same,"UAS7 change from baseline at Week 12, LS Mean Diff vs. placebo (95% CI)",[7],"0.08 (−5.29, 5.46)"
same,"UAS7 change from baseline at Week 12, Mean (SD)",[7],−10.57 (9.36)
same,"UAS7 change from baseline at Week 12, Median",[7],−8.70
same,"UAS7 change from baseline at Week 12, LS Mean (SE)",[7],−9.93 (1.96) ^
same,"UAS7 change from baseline at Week 12, LS Mean (SE)",[6],−9.74 (2.00) ^
same,patients with improvement in the weekly UAS7,400 mg TID arm,all patients except for one showed improvement
same,"UAS7 at Week 12, Median","400 mg TID, ITT population",9.00
